Tested on: rat Schwann cells
Assay: In vitro test using Schwann cells (Schwann cell differentiation promotion, MAG immunostaining)
Format: cell-based
Conditions: 3 days, MAG-positive area/cell nuclei; for activity at 0.3 µM / activity at 3 µM: Rattus norvegicus, 72 h; for activity at 0.3 µM: read-out: Schwann cell differentiation promotion rate (% of vehicle) 0.3 μmol/L; for activity at 3 µM: read-out: Schwann cell differentiation promotion rate (% of vehicle) 3 μmol/L
Procedure: Biological Experiment Example 1: In Vitro Test Using Schwann Cells
• (1) Preparation of rat Schwann cells
A dorsal root ganglion (abbreviated as “DRG”, hereinafter) was excised from a newborn rat aged 0 to 2 days in a clean bench and was collected in DMEM. After the collection, the tube was centrifuged at 400 g, at room temperature for 3 minutes, then a supernatant was discarded, and a 0.25% collagenase solution was added. There resultant solution was incubated at 37° C. for 30 minutes to disperse and separate the excised DRG, and was then centrifuged at room temperature at 400 g for 3 minutes, then a supernatant was discarded, and then 0.25% Trypsin/EDTA and DNaseI were added. After the incubation at 37° C. for 30 minutes, trypsin was inactivated with DMEM supplemented with 10% FBS (10% FBS-DMEM), and centrifugation was carried out at room temperature at 400 g for 3 minutes. A supernatant was discarded, then 10% FBS-DMEM was added to the residue to prepare a cell suspension, and then the cell suspension was allowed to pass through a filter (diameter: 70 μm). The number of cells in the cell suspension which passed through the filter was counted to prepare a solution having a concentration of 2.0×10^5 cells/mL, and the suspension was seeded in a poly-D-lysine-coated 96-well black-clear plate in an amount of 100 μL/well and was then statically cultured in a CO2 incubator under the conditions including 5% of CO2, 95% of air and 37° C.
The culture medium in the cell culture plate was removed by suction using an aspirator, and then DMEM supplemented with 1% dialyzed FBS and 100 μmol/L dibutyryl cyclic AMP was added. Subsequently, a solution of a compound of the present invention dissolved in DMSO was added, and the resultant solution was statically cultured in a C02 incubator under the conditions including 5% of C02, 95% of air and a temperature of 37° C. The final concentration of the compound of the present invention in each well in the cell culture plate was adjusted to 0.1, 0.3, 1 or 3 μmol/L.
Three days after the treatment with the compound, formaldehyde was added to each well in the cell culture plate, and the cell culture plate was allowed to stand at room temperature for 30 minutes or longer. A supernatant was discarded, and then a 0.3% tritonX-100 solution was added to each well, and then the cell culture plate was allowed to stand at room temperature for 20 minutes or longer. A supernatant was discarded, then a 5-μg/mL anti-myeline-associated glycoprotein antibody (anti-MAG antibody) solution was added to each well, and then the cell culture plate was allowed to stand at room temperature for 60 minutes or longer or at 4° C. (acceptable range: 1 to 9° C.) overnight. Each well was washed with a 0.1% tritonX-100 solution three times, then a 10-μg/mL Alexa fluor 488 anti-mouse IgG solution was added to each well, and then the cell culture plate was allowed to stand at room temperature for 60 or longer or at 4° C. overnight. Each well was washed with a 0.1% tritonX-100 solution four times, and then a 1-μg/mL Hoechst33342 solution was added to each well to stain nuclei.
The Mag-positive area and the number of cell nuclei in a fluorescent image were calculated. With respect to each of the MAG-positive area and the number of cell nuclei, the sum total of values obtained in 5 viewing fields/well was determined. The values were employed as a value for the MAG-positive area and a value for the number of cell nuclei, respectively, in each well. Subsequently, a value determined by dividing the value for the MAG-positive area in each well by the value for the number of cell nuclei in the well (i.e., MAG/cell nuclei numerical value) was calculated. The Schwann cell differentiation promotion rate was determined for each of the vehicles in accordance with the following formula. […]

Row | Structure (SMILES) | Schwann cell differentiation promotion rate (% of vehicle) 0.3 μmol/L (compound 0.3 μmol/L) | Schwann cell differentiation promotion rate (% of vehicle) 3 μmol/L (compound 3 μmol/L) | activity at 0.3 µM (compound 0.3 μmol/L) [%] | activity at 3 µM (compound 3 μmol/L) [%]
1 | O=C(O)CCc1ccccc1OCC[C@@H](O)/C=C/c1cccc(NS(=O)(=O)Cc2ccccc2)c1 [Example 74(15), 3-[2-[(E,3R)-5-[3-(Benzilsulfonylamino)phenyl]-3-hydroxypent-4-enoxy]phenyl]propanoic acid] | 204.5 % of vehicle | 428.1 % of vehicle |  | 
2 | O=C(O)CCc1ccccc1OCC[C@@H](O)/C=C/c1cccc(NS(=O)(=O)c2ccccn2)c1 [Example 74(16), 3-[2-[(E,3R)-3-Hydroxy-5-[3-(pyridin-2-ylsulfonylamino)phenyl]pent-4-enoxy]phenyl]propanoic acid] |  |  | 212 | 300
3 | O=C(O)CCc1ccccc1OCC[C@@H](O)/C=C/c1cccc(NS(=O)(=O)c2coc3ccccc23)c1 [Example 74(17), 3-[2-[(E,3R)-5-[3-(1-Benzofuran-3-ylsulfonylamino)phenyl]-3-hydroxypent-4-enoxy]phenyl]propanoic acid] |  |  | 85.6 | 252
4 | O=C(O)CCc1ccccc1OCC[C@@H](O)/C=C/c1cccc(NS(=O)(=O)c2ccsc2)c1 [Example 74(19), 3-[2-[(E,3R)-3-Hydroxy-5-[3-(thiophen-3-ylsulfonylamino)phenyl]pent-4-enoxy]phenyl]propanoic Acid] |  |  | 187 | 270
5 | O=C(O)CCc1ccccc1OCC[C@@H](O)CCc1cccc(NS(=O)(=O)C2CCCC2)c1 [Example 75, 3-[2-[(3S)-5-[3-(Cyclopentylsulfonylamino)phenyl]-3-hydroxypentoxy]phenyl]propanoic Acid] |  |  | 181 | 244
6 | COC(=O)CCc1ccccc1OCCC(=O)/C=C/c1cccc(NS(=O)(=O)c2ccccc2)c1 [Example 77, Methyl 3-[2-[(E)-5-[3-(benzenesulfonamido)phenyl]-3-oxopent-4-enoxy]phenyl]propanoate] |  |  | 115 | 256
7 | O=C(O)CCc1ccccc1OCCC/C=C/c1nc(C(O)Cc2ccccc2)cs1 (stereo not drawn) [Example 93, 3-[2-[(E)-5-[4-(1-Hydroxy-2-phenylethyl)-1,3-thiazol-2-yl]pent-4-enoxy]phenyl]propanoic acid] |  |  | 108 | 374
8 | O=C(O)CCc1ccccc1OCCCC(=O)CCc1cccc(NS(=O)(=O)c2ccccc2)c1 [Example 103, 3-[2-[6-[3-(Benzenesulfonamido)phenyl]-4-oxohexoxy]phenyl]propanoic acid] |  |  | 199 | 354
9 | O=C(O)CCc1ccccc1CCCC(=O)CCc1cccc(NS(=O)(=O)c2ccccc2)c1 [Example 112, 3-[2-[6-[3-(Benzenesulfonamido)phenyl]-4-oxohexyl]phenyl]propanoic acid] |  |  | 255 | 504
10 | O=C(O)CCc1ccccc1OCCC(F)(F)CCc1cccc(NS(=O)(=O)c2ccccc2)c1 [Example 139, 3-[2-[5-[3-(Benzenesulfonamido)phenyl]-3,3-difluoropentoxy]phenyl]propanoic acid] |  |  | 209 | 541
11 | O=C(O)CCc1ccccc1OCCOCCc1cccc(NS(=O)(=O)c2ccccc2)c1 [Example 149, 3-[2-[2-[2-[3-(Benzenesulfonamido)phenyl]ethoxy]ethoxy]phenyl]propanoic Acid] |  |  | 160 | 645
12 | O=C(O)CCc1ccccc1OCCCCCC1CCC(NS(=O)(=O)c2ccccc2)CC1 (stereo not drawn) [Example 166, 3-[2-[5-[4-(Benzenesulfonamido)cyclohexyl]pentoxy]phenyl]propanoic acid] |  |  | 104 | 465
